# Laboratory results as given in paper PMC7411887, “New Paracyclophanylthiazoles with Anti-Leukemia Activity: Design, Synthesis, Molecular Docking, and Mechanistic Studies” (Molecules, 2020).
# What was measured:
# Test in all cases: NCI single-dose screen (SRB)
# Type in all cases: cell-based
# UO-31 = details: Homo sapiens; Renal Cancer UO-31; 10^−5 M; read-out: Growth inhibition percentage
# Method: (§1) The methodology of the NCI anticancer screening was described in detail elsewhere (http://www.dtp.nci.nih.gov). […] Tested compounds were added to the culture at a single concentration (10^−5 M) and the cultures were incubated for 48 h. End-point determinations were made with a protein binding dye, SRB. Results for each tested compound were reported as the percentage growth of the treated cells when compared to the untreated control cells. The percentage growth was evaluated spectrophotometrically versus controls not treated with test agents. All experiments were repeated three times (Table 1).
# (§2) Briefly, the protocol was performed on 60 human tumor cell lines derived from different nine neoplastic diseases. […] If the results obtained met selection criteria, then the compound was tested again on all 60 cell lines in 5× 10-fold dilutions with the top dose being 10^−4 M or 150 μg/mL. Detailed methods are described in the Supplementary Materials related to this article.
# (§3) on their site (http://www.dtp.nci.nih.gov). But briefly, the protocol performed at sixty human
# (§4) National Cancer Institute, Bethesda, USA. If the results obtained meet selection criteria, then the
# (§5) 10-4 molar or 150 μg/mL. […]
# EKVX = details: Homo sapiens; Non-Small-Cell Lung Cancer EKVX; 10^−5 M; read-out: Growth inhibition percentage
# Method: as §1, §2, §3, §4, §5
# MDA-MB-468 = details: Homo sapiens; Breast Cancer MDA-MB-468; 10^−5 M; read-out: Growth inhibition percentage
# Method: as §1, §2, §3, §4, §5
# U251 = details: Homo sapiens, U-251; CNS Cancer U251; 10^−5 M; read-out: Growth inhibition percentage
# Method: as §1, §2, §3, §4, §5
# SW-620 = details: Homo sapiens; Colon Cancer SW-620; 10^−5 M; read-out: Growth inhibition percentage
# Method: as §1, §2, §3, §4, §5
# SK-OV-3 = details: Homo sapiens; Ovarian Cancer SK-OV-3; 10^−5 M; read-out: Growth inhibition percentage
# Method: as §1, §2, §3, §4, §5
# OVCAR-5 = details: Homo sapiens; Ovarian Cancer OVCAR-5; 10^−5 M; read-out: Growth inhibition percentage
# Method: as §1, §2, §3, §4, §5
# SN12C = details: Homo sapiens; Renal Cancer SN12C; 10^−5 M; read-out: Growth inhibition percentage
# Method: as §1, §2, §3, §4, §5
# HCT-15 = details: Homo sapiens; Colon Cancer HCT-15; 10^−5 M; read-out: Growth inhibition percentage
# Method: as §1, §2, §3, §4, §5
# MDA-MB-231/ATCC = details: Homo sapiens; Breast Cancer MDA-MB-231/ATCC; 10^−5 M; read-out: Growth inhibition percentage
# Method: as §1, §2, §3, §4, §5
# OVCAR-8 = details: Homo sapiens; Ovarian Cancer OVCAR-8; 10^−5 M; read-out: Growth inhibition percentage
# Method: as §1, §2, §3, §4, §5
# SF-295 = details: Homo sapiens; CNS Cancer SF-295; 10^−5 M; read-out: Growth inhibition percentage
# Method: as §1, §2, §3, §4, §5
# NCI/ADR-RES = details: Homo sapiens; Ovarian Cancer NCI/ADR-RES; 10^−5 M; read-out: Growth inhibition percentage
# Method: as §1, §2, §3, §4, §5
# UACC-257 = details: Homo sapiens; Melanoma UACC-257; 10^−5 M; read-out: Growth inhibition percentage
# Method: as §1, §2, §3, §4, §5
# COLO 205 = details: Homo sapiens; Colon Cancer COLO 205; 10^−5 M; read-out: Growth inhibition percentage
# Method: as §1, §2, §3, §4, §5
# DU-145 = details: Homo sapiens; Prostate Cancer DU-145; 10^−5 M; read-out: Growth inhibition percentage
# Method: as §1, §2, §3, §4, §5
# M14 = details: Homo sapiens; Melanoma M14; 10^−5 M; read-out: Growth inhibition percentage
# Method: as §1, §2, §3, §4, §5
# RPMI-8226 = details: Homo sapiens; Leukemia RPMI-8226; 10^−5 M; read-out: Growth inhibition percentage
# Method: as §1, §2, §3, §4, §5
# SR = details: Homo sapiens; Leukemia SR; 10^−5 M; read-out: Growth inhibition percentage
# Method: as §1, §2, §3, §4, §5
# HOP-92 = details: Homo sapiens; Non-Small-Cell Lung Cancer HOP-92; 10^−5 M; read-out: Growth inhibition percentage
# Method: as §1, §2, §3, §4, §5
# MDA-MB-435 = details: Homo sapiens; Melanoma MDA-MB-435; 10^−5 M; read-out: Growth inhibition percentage
# Method: as §1, §2, §3, §4, §5
# LOX IMVI = details: Homo sapiens; Melanoma LOX IMVI; 10^−5 M; read-out: Growth inhibition percentage
# Method: as §1, §2, §3, §4, §5
# KM12 = details: Homo sapiens; Colon Cancer KM12; 10^−5 M; read-out: Growth inhibition percentage
# Method: as §1, §2, §3, §4, §5
# IGROV1 = details: Homo sapiens, IGROV-1; Ovarian Cancer IGROV1; 10^−5 M; read-out: Growth inhibition percentage
# Method: as §1, §2, §3, §4, §5
# SNB-75 = details: Homo sapiens; CNS Cancer SNB-75; 10^−5 M; read-out: Growth inhibition percentage
# Method: as §1, §2, §3, §4, §5
# SK-MEL-28 = details: Homo sapiens; Melanoma SK-MEL-28; 10^−5 M; read-out: Growth inhibition percentage
# Method: as §1, §2, §3, §4, §5
# ACHN = details: Homo sapiens; Renal Cancer ACHN; 10^−5 M; read-out: Growth inhibition percentage
# Method: as §1, §2, §3, §4, §5
# SF-268 = details: Homo sapiens; CNS Cancer SF-268; 10^−5 M; read-out: Growth inhibition percentage
# Method: as §1, §2, §3, §4, §5
# NCI-H522 = details: Homo sapiens; Non-Small-Cell Lung Cancer NCI-H522; 10^−5 M; read-out: Growth inhibition percentage
# Method: as §1, §2, §3, §4, §5
# HCT-116 = details: Homo sapiens; Colon Cancer HCT-116; 10^−5 M; read-out: Growth inhibition percentage
# Method: as §1, §2, §3, §4, §5
SMILES,inhibition at 10 µM (UO-31) [%],inhibition at 10 µM (EKVX) [%],inhibition at 10 µM (MDA-MB-468) [%],inhibition at 10 µM (U251) [%],inhibition at 10 µM (SW-620) [%],inhibition at 10 µM (SK-OV-3) [%],inhibition at 10 µM (OVCAR-5) [%],inhibition at 10 µM (SN12C) [%],inhibition at 10 µM (HCT-15) [%],inhibition at 10 µM (MDA-MB-231/ATCC) [%],inhibition at 10 µM (OVCAR-8) [%],inhibition at 10 µM (SF-295) [%],inhibition at 10 µM (NCI/ADR-RES) [%],inhibition at 10 µM (UACC-257) [%],inhibition at 10 µM (COLO 205) [%],inhibition at 10 µM (DU-145) [%],inhibition at 10 µM (M14) [%],inhibition at 10 µM (RPMI-8226) [%],inhibition at 10 µM (SR) [%],inhibition at 10 µM (HOP-92) [%],also measured
COC(=O)/C=C1/S/C(=N/NC(=O)c2cc3ccc2CCc2ccc(cc2)CC3)N(C2CC2)C1=O [Compound 3f],21.7,12.2,29.7,20.3,12.9,0,0,17.1,29.4,3.5,13.3,8.8,7.72,16.3,4.48,6.2,19.2,49.8,39.1,16.2,inhibition at 10 µM (MDA-MB-435): 8.06%; inhibition at 10 µM (LOX IMVI): 9.41%; inhibition at 10 µM (KM12): 1.32%; inhibition at 10 µM (IGROV1): 7.2%; inhibition at 10 µM (SNB-75): 24.7%; inhibition at 10 µM (SK-MEL-28): 10.3%; inhibition at 10 µM (ACHN): 17.8%; inhibition at 10 µM (SF-268): 2.56%; inhibition at 10 µM (NCI-H522): 30%; inhibition at 10 µM (HCT-116): 24.6%
"COC(=O)C=C1SC(=Nc2cccnc2)N(NC(=O)c2cc3ccc2CCc2ccc(cc2)CC3)C1=O [Compound 3c, Methyl (E)-2-((E)-3-[2.2]paracyclophanyl)amido-4-oxo-2-(pyridin-3-ylimino)-thiazolidin-5-ylidene)acetate]",21.9,2.61,18,14.7,10.8,0,0.61,8.87,11.8,10.6,1.51,5.63,4.7,0.83,0,0,7.99,83,74.2,8.14,inhibition at 10 µM (MDA-MB-435): 0%; inhibition at 10 µM (LOX IMVI): 9.78%; inhibition at 10 µM (KM12): 7.32%; inhibition at 10 µM (IGROV1): 15.4%; inhibition at 10 µM (SNB-75): 0.25%; inhibition at 10 µM (SK-MEL-28): 0.86%; inhibition at 10 µM (ACHN): 11%; inhibition at 10 µM (SF-268): 3.08%; inhibition at 10 µM (NCI-H522): 17.7%; inhibition at 10 µM (HCT-116): 6.35%
COC(=O)C=C1SC(=NNC(=O)c2cc3ccc2CCc2ccc(cc2)CC3)N(c2ccccc2)C1=O [Compound 3a],41.5,41,100,84.2,92.6,0,51.8,77.5,99.7,67.5,59.3,41,68.6,30.8,52.3,49.1,46.9,121,116,24.7,inhibition at 10 µM (MDA-MB-435): 10.4%; inhibition at 10 µM (LOX IMVI): 128%; inhibition at 10 µM (KM12): 91.5%; inhibition at 10 µM (IGROV1): 94%; inhibition at 10 µM (SNB-75): 54.3%; inhibition at 10 µM (SK-MEL-28): 17.5%; inhibition at 10 µM (ACHN): 30.7%; inhibition at 10 µM (SF-268): 27.5%; inhibition at 10 µM (NCI-H522): 58.5%; inhibition at 10 µM (HCT-116): 96%
COC(=O)C=C1SC(=NNC(=O)c2cc3ccc2CCc2ccc(cc2)CC3)N(Cc2ccccc2)C1=O [Compound 3b],55,22.3,78.9,45,81.8,0,34.6,38.8,72.2,43.2,28,10.6,29.6,19,27.3,16.8,36.6,147,115,24.5,inhibition at 10 µM (MDA-MB-435): 8.44%; inhibition at 10 µM (LOX IMVI): 93.8%; inhibition at 10 µM (KM12): 34.9%; inhibition at 10 µM (IGROV1): 57.7%; inhibition at 10 µM (SNB-75): 48.8%; inhibition at 10 µM (SK-MEL-28): 0%; inhibition at 10 µM (ACHN): 34.2%; inhibition at 10 µM (SF-268): 14.9%; inhibition at 10 µM (NCI-H522): 84.1%; inhibition at 10 µM (HCT-116): 50.5%
